Assay results taken from patent publication US9579406B2, “Phospholipid ether analogs as agents for detecting and locating cancer, and methods thereof” (Cellectar, Inc., priority 2004, dated 2017).
“Also recorded” adds a separate entry of the source.

Key:
[1] = MIRD extrapolation of rat tissue distribution data to permissible human dose; parameters: species or system human (from rat data)
Description: Accordingly the inventors have conducted the preliminary pharmacokinetic studies in human lung cancer patients at 1 mCi. Similar extrapolative calculation of the dosimetry for ^124I-NM404 afforded a similar 2 mCi dose level again based on projected dosimetry to the adrenals and bladder wall. Preliminary human data (5 patients), however, indicate very little uptake and retention of the agent into any abdominal organ (including the bladder and adrenals) with the exception of the liver which returns to background levels within 11 days.
Dosing of radioiodinated ^124I NM404 will be based on MIRD extrapolation of the iodine-131 dosimetry data derived from this ongoing study. The ^131I-NM404 dose is currently calculated as follows: Animal biodistribution data is used to determine the percentage of injected dose/organ at varying time points. These animal data are extrapolated to man by means of MIRD formalism (MIRDOSE PC v3.1) using standard conversion factors for differences in organ mass and anatomy between rat and standard man, providing predicted human organ doses; Based on these predicted doses, the permissible mCi dose to be injected into humans is determined using the maximal doses legally permitted by RDRC regulations for specific human tissue as defined in the Federal Register (21CFR Part 361.1) e.g. whole body, blood, blood forming tissues, eye lens, gonads—3 rem/dose; any other tissue—5 rem/dose. This approach was previously used to bring both NM324 and NM404 to clinical use, resulting in a calculated dose of 1 mCi.

Lung A-549 (NSCC) = test: Tumor models examined with NM404 (Table 2); assay type: in vivo, SCID Mouse; settings: Adenocarcinoma
Description: (§1) NM404 has now been evaluated in 27 animal tumor models, including several lung, and it is clear that once the agent enters tumor cells, it reaches a metabolic dead end and becomes trapped. […] NM404 is also retained in spontaneous murine lung tumors (FIG. 13). Using ^125I-labeled NM404, the inventors have been able to image mammary and prostate tumors in mice in excess of 60 days. […] Imaging and tissue distribution studies performed in mouse models aimed at determining the uptake characteristics in a wide variety of tumor models are summarized in Table 2.
(§2) Although tumor retention can be explained by a lack of metabolic phospholipase enzymes in the tumor cell membranes, the exact mechanism of tumor cell uptake is unknown. […] The inventors are currently evaluating the selectivity of NM404 in a unique mouse tumor model developed at Wisconsin, wherein both preneoplastic hyperplasias and malignant adenocarcinomas form spontaneously in the mammary gland. […] If this initial observation is validated, then via genomic and or proteomic analysis the inventors may be able to identify a key genetic difference between malignant tumors and their non malignant predecessor cells. This could identify a completely new molecular therapeutic target that may be universal for all types of cancer.

Adrenal H-295 = test: Tumor models examined with NM404 (Table 2); assay type: in vivo, SCID Mouse; settings: Adenocarcinoma
Description: as §1, §2

Adrenal RL-251 = test: Tumor models examined with NM404 (Table 2); assay type: in vivo, SCID Mouse; settings: Adenocarcinoma
Description: as §1, §2

Prostate PC-3 = test: Tumor models examined with NM404 (Table 2); assay type: in vivo, SCID Mouse; settings: Adenocarcinoma
Description: as §1, §2

[2] = system: human PC-3 prostate tumor xenografts; test: Scintigraphy and tissue distribution in SCID mice bearing human PC-3 prostate tumor xenografts; assay type: in vivo; settings: day 5
Description: Tumor uptake, however, continued to increase up until day 5 when it reached 18% injected dose per gram of tumor. […] Tumor to background tissue ratios exceeded 4, 6.8, 23, and 9 in blood, liver, muscle, and prostate, respectively, 3 days after injection and continued to improve at 5 and 8 days. Again, although thyroid levels ranged from 26 to 54% injected dose per gram of tissue, these levels are actually quite low and represent an extremely small percentage of the injected dose when the exceedingly small mass of the organ is considered and the data are presented on a percent administered dose per organ basis.

[3] = Acute GLP toxicology, single dose, 14 days observation, rabbits; assay type: in vivo
Method: Formal toxicology studies of NM404 in male rats and rabbits were performed at the Toxicology Research Center of the State University of New York at Buffalo under the direction of Dr. Paul Kostyniak. Drug vehicle and drug product were provided to Dr. Kostyniak by Dr. Raymond Counsell of the University of Michigan for testing as described in the appended synopses of Study 27 and Study 28. […] Human safety studies of unlabeled NM404 were initiated in normal male humans at a mass of 10 times the anticipated imaging dose and about 21 times the anticipated therapy dose. […] This toxicology study was performed under GLP conditions.
Subsequently, the researchers at the University of Wisconsin initiated a toxicology study of unlabeled NM404 in female rats and rabbits (Study 31 and Study 32) at the Toxicology Research Center at SUNY-Buffalo in order to expand the patient population to be studied in the NSCLC Phase 1 clinical trial. […] Human safety studies of unlabeled NM404 were initiated in normal female humans at a mass of 10 times the initially anticipated imaging dose and about 21 times the anticipated therapy dose. […] This toxicology study was performed under GLP conditions.

[4] = assay type: in vivo, human
Lung NCI H-69 (Oat Cell) = test: Tumor models examined with NM404 (Table 2); assay type: in vivo, Nude Mouse; settings: Small cell carcinoma
Description: as §1, §2

Colon LS-180 = test: Tumor models examined with NM404 (Table 2); assay type: in vivo, Nude Mouse; settings: Adenocarcinoma
Description: as §1, §2

Melanoma A-375 = test: Tumor models examined with NM404 (Table 2); assay type: in vivo, Nude Mouse
Description: as §1, §2

Ovarian HTB-77 = test: Tumor models examined with NM404 (Table 2); assay type: in vivo, Nude Mouse; settings: Adenocarcinoma
Description: as §1, §2

TRAMP prostate tumors = test: Bioscan imaging of TRAMP mice prostate tumors; assay type: in vivo; settings: 125I label 15 μCi, 1-8 days
Method: Following in vivo imaging of anesthetized mice, the prostate tumors were removed immediately, and imaged ex vivo on the same scanner (equipped with high resolution 1 mm collimator and 2-D acquisition and analysis software) in order to avoid tissue attenuation associated with the low energy of iodine-125 (FIG. 21). […] In an attempt to simulate bone metastases another experiment was performed wherein human PC-3 tumor cells were implanted into the tibia of immune compromised NUDE mice (n=6) according to a recent reports. Following tumor cell inoculation, mice were scanned serially by high-resolution microCT in order to monitor bone tumor development (FIG. 22). Once bone deterioration was detected, iodine-125 labeled NM404 was administered intravenously via tail vein. Mice were scanned for radioactivity and by microCT 4 days post NM404 administration. Radioactivity scans were fused with microCT scans (FIG. 23) to corroborate NM404 radioactivity and tumor location.

## C[N+](C)(C)CCOP(=O)([O-])OCCCCCCCCCCCCCCCCCCc1ccc(I)cc1 [NM-404, 18-(4-iodophenyl)-octadecylphosphocholine]
[1]
  calculated dose for clinical use: 1 mCi
[1]; new animal data
  5 rad dose to adrenals: 2.2 mCi
  5 rad testes dose: 2.1 mCi
Lung A-549 (NSCC)
  NM404 Tumor Localization: Yes (Localization defined as >5% injected dose per gram tumor basis based on tissue distribution data)
Adrenal H-295
  NM404 Tumor Localization: Yes (Localization defined as >5% injected dose per gram tumor basis based on tissue distribution data)
Adrenal RL-251
  NM404 Tumor Localization: Yes (Localization defined as >5% injected dose per gram tumor basis based on tissue distribution data)
Prostate PC-3
  NM404 Tumor Localization: Yes (Localization defined as >5% injected dose per gram tumor basis based on tissue distribution data)
[2]
  tumor uptake: 18 % injected dose per gram of tumor
[3]; female rabbits, 0.04 mg/kg (Study 32)
  toxic effects: no significant toxic effects were noted
[3]; male and female rabbits
  adverse effects: no adverse effects attributable to the test article were noted
[3]; male rabbits, 4 mg/kg (Study 28)
  toxic effects: no significant toxic effects were noted
[3]; unlabeled, 1200 times the anticipated imaging mass dose
  acute toxicity: no acute toxicities were found
[4]; human, plasma, intravenous, 0.3 μg/kg, average, read-out: plasma elimination half life time (converted)
  half-life: 113 h
[4]; within 4 days of iv injection
  agent cleared renally: 4%
Lung NCI H-69 (Oat Cell)
  NM404 Tumor Localization: Yes (Localization defined as >5% injected dose per gram tumor basis based on tissue distribution data)
Colon LS-180
  NM404 Tumor Localization: Yes (Localization defined as >5% injected dose per gram tumor basis based on tissue distribution data)
Melanoma A-375
  NM404 Tumor Localization: Yes (Localization defined as >5% injected dose per gram tumor basis based on tissue distribution data)
Ovarian HTB-77
  NM404 Tumor Localization: Yes (Localization defined as >5% injected dose per gram tumor basis based on tissue distribution data)
TRAMP prostate tumors
  uptake into prostate tumor and benign hyperplasia: uptake of NM404 into prostate tumor but not benign hyperplasia; also recorded: intense uptake of radioactivity in the prostate tumor
